Measured values as given in patent US20250042894A1, “PROTEIN TYROSINE PHOSPHATASE INHIBITORS AND METHODS OF USE THEREOF” (Calico Life Sciences LLC, priority 2021, published 2025).
Read-outs that look alike come from different tables or passages of the source.

What was measured:
[1] = target: T1, His tagged PTPN2 (TC45) protein (Homo sapiens, UniProt P17706); assay: Mobility Shift Assay (MSA) for PTPN2 inhibitors; assay type: biochemical; conditions: for Thiochromane x-fold>potency biochemical: PTPN2 MSA IC50 of chromane comparator over thiochromane
T1 construct: His; made in house
T1 sequence (P17706 1-387 isoform P17706-2): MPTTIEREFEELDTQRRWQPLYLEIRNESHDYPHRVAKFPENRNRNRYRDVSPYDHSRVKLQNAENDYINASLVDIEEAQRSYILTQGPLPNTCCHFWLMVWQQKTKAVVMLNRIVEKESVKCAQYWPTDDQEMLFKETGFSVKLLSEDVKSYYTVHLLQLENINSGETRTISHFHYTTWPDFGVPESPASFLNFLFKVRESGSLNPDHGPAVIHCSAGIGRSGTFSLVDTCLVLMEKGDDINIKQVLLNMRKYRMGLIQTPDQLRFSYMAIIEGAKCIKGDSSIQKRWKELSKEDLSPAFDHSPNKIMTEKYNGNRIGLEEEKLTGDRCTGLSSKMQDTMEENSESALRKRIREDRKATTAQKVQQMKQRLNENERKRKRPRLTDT
In short: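 Enzyme (0.5 nM) preincubated 10 min at RT with compound (12-point, 1:3 dilution) in 50 mM HEPES pH 7.5, 10 mM EDTA, 2 mM DTT; OG488-labelled phospho-insulin-receptor peptide substrate (2 μM) then added for 10 min. After quench, dephosphorylation measured by microfluidic mobility shift (ex 488/em 530 nm); IC50 from % inhibition.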

[2] = target: T2, His tagged full-length PTPN1 protein (Homo sapiens, UniProt P18031); assay: Mobility Shift Assay (MSA) for PTPN1 inhibitors; assay type: biochemical; conditions: enzyme 0.5 nM, substrate 2 μM, 10 minutes preincubation at room temperature
T2 construct: His; made in house
T2 sequence (P18031 1-435): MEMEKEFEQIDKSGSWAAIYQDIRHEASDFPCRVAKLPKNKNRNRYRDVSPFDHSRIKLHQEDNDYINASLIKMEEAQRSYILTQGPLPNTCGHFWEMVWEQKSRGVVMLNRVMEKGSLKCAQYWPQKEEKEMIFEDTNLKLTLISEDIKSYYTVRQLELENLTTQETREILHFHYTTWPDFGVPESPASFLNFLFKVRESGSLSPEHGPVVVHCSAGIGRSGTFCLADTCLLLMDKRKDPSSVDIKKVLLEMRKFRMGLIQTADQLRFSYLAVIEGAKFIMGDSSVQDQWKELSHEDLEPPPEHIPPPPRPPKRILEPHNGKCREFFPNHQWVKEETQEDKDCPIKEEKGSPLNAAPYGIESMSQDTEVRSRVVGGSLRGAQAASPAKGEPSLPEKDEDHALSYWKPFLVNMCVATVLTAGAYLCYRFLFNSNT
In short: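 Full-length His-tagged human PTPN1 (0.5 nM) was pre-incubated 10 min at RT with compound (12-point, 1:3) in HEPES pH 7.5 buffer with EGTA, EDTA, Tween-20 and DTT. Fluorescent phospho-insulin-receptor peptide (2 μM) was then added for 10 min. After quench, dephosphorylation was measured by microfluidic mobility shift, and IC50 was taken from % inhibition.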

[3] = test system: IFNγ-induced STAT1 phosphorylation (pSTAT1) in B16F10 cells; assay: B16F10 Phospho-STAT1 HTRF proximal pharmacodynamic (PD) assay; assay type: cell-based, murine; conditions: for EC50: B16-F10; for Thiochromane x-fold>potency cellular: pSTAT1 EC50 of chromane comparator over thiochromane
In short: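 Murine B16F10 melanoma cells dosed 3 h at 37 °C (10-point, 3-fold dilution from 50 μM top dose), then stimulated 10 min with recombinant mouse IFNγ (100 nM final) and stopped with 3.3 μM staurosporine for 1 h. pSTAT1 in lysates detected by HTRF (Eu cryptate/d2 antibodies, 3 h RT, 665 nm emission); EC50 from dose-response curves.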

[4] = enzyme 0.5 nM, substrate 2 μM, 10 minutes preincubation at room temperature
[5] = Table 2, 3 hours compound, then mouse IFNγ 100 nM 10 minutes, top dose 50 μM, read-out: B16F10 IFNγ Induced pSTAT1 EC50
[6] = Mus musculus, Table 3, B16F10 cells, IFNγ-induced, thiochromanes (X = S) and chromane comparators (X = O), read-out: pSTAT1 EC50

Structure (SMILES)	IC50 [1, 4] [µM]	IC50 [2] [µM]	EC50 [3, 5] [µM]	Thiochromane x-fold>potency biochemical ([1]; Table 3)	EC50 [3, 6] [µM]	Thiochromane x-fold>potency cellular ([3]; Table 3)	IC50 ([1]; Table 3, thiochromanes (X = S) and chromane comparators (X = O)) [µM]
O=C1CN(c2c(O)cc3c(c2F)C[C@H](NCc2ccccc2)CS3)S(=O)(=O)N1 [Compound 121, 5-[(3S)-3-(benzylamino)-5-fluoro-7-hydroxy-3,4-dihydro-2H-1-benzothiopyran-6-yl]-1λ^6,2,5-thiadiazolidine-1,1,3-trione]	0.01 to 0.1	0.01 to 0.1	8.15				
O=C1CN(c2c(O)cc3c(c2F)C[C@H](NCC2CCC(C(F)(F)F)CC2)CS3)S(=O)(=O)N1 (stereo partly drawn) [Compound 139, 5-[(3S)-5-fluoro-7-hydroxy-3-({[4-(trifluoromethyl)cyclohexyl]methyl}amino)-3,4-dihydro-2H-1-benzothiopyran-6-yl]-1λ^6,2,5-thiadiazolidine-1,1,3-trione]	< 0.01	0.01 to 0.1	> 50	5.4	> 50	~1.0	
CCC(CC)CCN[C@@H]1CSc2cc(O)c(N3CC(=O)NS3(=O)=O)c(F)c2C1 [Compound 119, 5-{(3S)-3-[(3-ethylpentyl)amino]-5-fluoro-7-hydroxy-3,4-dihydro-2H-1-benzothiopyran-6-yl}-1λ^6,2,5-thiadiazolidine-1,1,3-trione]	< 0.01	0.01 to 0.1	6.66				
CCC(C)(C)CCN[C@@H]1CSc2cc(O)c(N3CC(=O)NS3(=O)=O)c(F)c2C1 [Compound 124, 5-{(3S)-3-[(3,3-dimethylpentyl)amino]-5-fluoro-7-hydroxy-3,4-dihydro-2H-1-benzothiopyran-6-yl}-1λ^6,2,5-thiadiazolidine-1,1,3-trione]	< 0.01	0.01 to 0.1	6.94				
O=C1CN(c2c(O)cc3c(c2F)C[C@H](NCCC2CCCCC2)CS3)S(=O)(=O)N1 [Compound 118, 5-{(3S)-3-[(2-cyclohexylethyl)amino]-5-fluoro-7-hydroxy-3,4-dihydro-2H-1-benzothiopyran-6-yl}-1λ^6,2,5-thiadiazolidine-1,1,3-trione]	< 0.01	< 0.01	4.22				
CC(CCN[C@@H]1CSc2cc(O)c(N3CC(=O)NS3(=O)=O)c(F)c2C1)c1ccccc1 (stereo partly drawn) [Compound 134, 5-{(3S)-5-fluoro-7-hydroxy-3-[(3-phenylbutyl)amino]-3,4-dihydro-2H-1-benzothiopyran-6-yl}-1λ^6,2,5-thiadiazolidine-1,1,3-trione]	< 0.01	0.01 to 0.1	> 50				
O=C1CN(c2c(O)cc3c(c2F)C[C@H](NCC2C4CCCC42)CS3)S(=O)(=O)N1 (mixture of isomers) [Compound 138, 5-[(3S)-3-({[(1RS,5SR)-bicyclo[3.1.0]hexan-6-yl]methyl}amino)-5-fluoro-7-hydroxy-3,4-dihydro-2H-1-benzothiopyran-6-yl]-1λ^6,2,5-thiadiazolidine-1,1,3-trione]	0.01 to 0.1	0.01 to 0.1	1.48	2.0	1.48	>33.8	
O=C1CN(c2c(O)cc3c(c2F)C[C@H](NCCCC(F)F)CS3)S(=O)(=O)N1 [Compound 100, 5-{(3S)-3-[(4,4-difluorobutyl)amino]-5-fluoro-7-hydroxy-3,4-dihydro-2H-1-benzothiopyran-6-yl}-1λ^6,2,5-thiadiazolidine-1,1,3-trione]	< 0.01	< 0.01	0.164	3.4			0.002
CC(C)(C)OC(=O)N1CCC(CN[C@@H]2CSc3cc(O)c(N4CC(=O)NS4(=O)=O)c(F)c3C2)CC1 [Compound 141, tert-butyl 4-({[(3S)-5-fluoro-7-hydroxy-6-(1,1,4-trioxo-1λ^6,2,5-thiadiazolidin-2-yl)-3,4-dihydro-2H-1-benzothiopyran-3-yl]amino}methyl)piperidine-1-carboxylate]	0.01 to 0.1	0.01 to 0.1	6.97	1.0	6.97	>7.2	
